BindingDB's records for doi:10.7270/Q21J98DJ (The Scripps Research Institute Molecular Screening Center, 2014)

Each compound was assayed against Disintegrin and metalloproteinase domain-containing protein 17 (Homo sapiens, UniProt P78536) (assay: exosite inhibitors of ADAM17, dose response, biochemical (AID 743260)).
Disintegrin and metalloproteinase domain-containing protein 17, sequence (P78536 whole entry, the tested form may be a part): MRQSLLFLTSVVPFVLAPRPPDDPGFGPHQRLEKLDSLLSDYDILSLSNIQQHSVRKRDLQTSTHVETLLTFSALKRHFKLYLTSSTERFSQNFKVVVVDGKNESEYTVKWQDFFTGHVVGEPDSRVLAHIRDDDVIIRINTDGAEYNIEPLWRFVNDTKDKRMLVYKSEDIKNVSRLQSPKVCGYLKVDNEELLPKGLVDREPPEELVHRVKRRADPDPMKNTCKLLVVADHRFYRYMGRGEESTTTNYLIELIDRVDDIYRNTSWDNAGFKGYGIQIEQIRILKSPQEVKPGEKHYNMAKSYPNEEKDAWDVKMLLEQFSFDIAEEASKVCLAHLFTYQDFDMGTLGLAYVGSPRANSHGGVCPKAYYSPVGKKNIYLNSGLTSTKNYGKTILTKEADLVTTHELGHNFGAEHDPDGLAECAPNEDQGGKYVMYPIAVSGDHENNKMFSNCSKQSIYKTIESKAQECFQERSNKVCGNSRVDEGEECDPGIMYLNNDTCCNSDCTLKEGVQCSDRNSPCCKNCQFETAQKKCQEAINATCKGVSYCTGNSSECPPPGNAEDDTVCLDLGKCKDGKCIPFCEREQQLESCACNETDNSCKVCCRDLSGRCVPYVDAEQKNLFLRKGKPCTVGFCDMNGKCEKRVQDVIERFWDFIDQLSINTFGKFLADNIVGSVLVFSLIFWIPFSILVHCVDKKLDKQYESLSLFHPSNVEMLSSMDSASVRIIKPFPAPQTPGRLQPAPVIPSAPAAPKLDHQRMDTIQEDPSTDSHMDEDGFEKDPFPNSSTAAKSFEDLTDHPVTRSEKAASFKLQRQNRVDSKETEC

Structure (SMILES)	IC50
CCOc1ccc(NC(=O)Cc2sc(=O)n(-c3ccccc3)c2O)cc1	5.73 µM
Cn1c(-c2sccc2OCc2ccc(Cl)cc2Cl)n[nH]c1=S	69.5 µM
COc1cccc(C2c3oc(CO)cc(=O)c3OC(=N)C2C#N)c1 (stereo not drawn) [2-Amino-6-hydroxymethyl-4-(3-methoxy-phenyl)-8-oxo-4,8-dihydro-pyrano[3,2-b]pyran-3-carbonitrile]	69.5 µM
COc1ccc(NC(=O)c2oc3ccccc3c2NC(=O)C(C)(C)C)cc1 [3-(2,2-dimethylpropanoylamino)-N-(4-methoxyphenyl)-1-benzofuran-2-carboxamide]	69.5 µM
C=c1cc(O)c(CN(C)C)c2oc(=Cc3ccco3)c(O)c12 [(2Z)-7-[(dimethylamino)methyl]-2-(furan-2-ylmethylidene)-6-hydroxy-4-methyl-1-benzofuran-3-one]	17 µM
O=C1OCCN1C(=O)C1=[N+](c2ccc(Br)cc2)N[C-](c2ccccc2)[C@H]1c1ccc([N+](=O)[O-])cc1 [SMR000327268]	69.5 µM
COC(=O)c1cccc(Cn2c(Cl)c(CN=Nc3ccccc3C)sc2=O)c1 [methyl 3-[[4-chloro-5-[[(2-methylphenyl)hydrazinylidene]methyl]-2-oxo-1,3-thiazol-3-yl]methyl]benzoate]	69.5 µM

Further lines, results first:

IC50	Structure (SMILES)
46.7 µM	O=C(Cc1sc(=O)n(-c2ccccc2)c1O)Nc1ccccc1 [2-(2,4-diketo-3-phenyl-thiazolidin-5-yl)-N-phenyl-acetamide]
69.5 µM	CCOc1cc(C(c2c(C)[nH][nH]c2=O)c2c(C)[nH][nH]c2=O)ccc1O [4-[(3-ethoxy-4-hydroxyphenyl)-(3-methyl-5-oxo-1,2-dihydropyrazol-4-yl)methyl]-5-methyl-1,2-dihydropyrazol-3-one]
69.5 µM	Cc1cccc(NNC2=c3cc(Br)ccc3=NC2=O)c1 [5-bromo-3-[2-(3-methylphenyl)hydrazinyl]indol-2-one]
69.5 µM	CC1CCCN(CCCNC(=O)c2coc3nc4ccccc4nc23)C1 (stereo not drawn) [MLS000046706]
69.5 µM	CC(=NNC(=N)Sc1cc(O)n(-c2ccc(Br)cc2)c1O)c1cccs1 [[1-(4-bromophenyl)-2,5-bis(oxidanylidene)pyrrolidin-3-yl] N''-(1-thiophen-2-ylethylideneamino)carbamimidothioate]
69.5 µM	CC(=NNC(=N)Sc1cc(O)n(-c2ccccc2)c1O)c1cccs1 [[2,5-bis(oxidanylidene)-1-phenyl-pyrrolidin-3-yl] N'-[(E)-1-thiophen-2-ylethylideneamino]carbamimidothioate]
